In patent US10131679B2, “Substituted dihydropyrrolopyrazole compound” (UBE INDUSTRIES, LTD., priority 2014, dated 2018):
Counter-ions that a name gives are not always drawn. Blank lines part the entries; values can stand above or below the compound they belong to.

How the values were obtained:
[1] = target: T1, CDK7 (Homo sapiens, UniProt P50613); assay: CDK7 enzyme inhibition test; assay type: biochemical; conditions: Ki=IC50/(1+S/Km); 33P bound to MBP, [γ-33P]ATP, 30° C. for 20 minutes; read-out: Ki value of CDK7 inhibitory activity
T1 construct: purchased Carna Biosciences, Inc. 04-108
Description: CDK7 Enzyme Inhibition Test
The preparation of a buffer solution was performed by mixing a N-2-hydroxyethylpiperazine-N′-2-ethanesulfonic acid buffer solution (HEPES buffer solution) (pH 7.4), dithiothreitol (DTT), Triton X-100, and magnesium chloride (MgCl2). A 500 μM [γ-^33P]ATP solution was used by diluting a 10 mM ATP solution and a commercially available [γ-^33P]ATP solution (manufactured by PerkinElmer, Inc., Code No. NEG-302H) with the buffer solution. A CDK7 solution was used by diluting commercially available CDK7 (manufactured by Carna Biosciences, Inc., Catalog No. 04-108) with the buffer solution. A substrate solution was used by diluting myelin basic protein (MBP) with the buffer solution. As for the preparation of a reaction solution, the buffer solution, the 500 μM [γ-^33P]ATP solution, the CDK7 solution, and the substrate solution were mixed at 4° C. to obtain a reaction solution.
(§1) CDK7 enzyme reaction was performed by adding 5 μL of a test compound solution prepared with 10% dimethyl sulfoxide (DMSO)/90% injectable distilled water, and 45 μL of the reaction solution to a 1.5 mL microtube at 4° C. and reacting in the microtube at 30° C. for 20 minutes in a water bath incubator. After the reaction, a 10% aqueous trichloroacetic acid (TCA) solution was added to each microtube while cooled to 4° C., and mixed to terminate the reaction. The resultant was left standing at 4° C. for 10 minutes and then centrifuged in a centrifuge, and the supernatant was discarded. Next, a 2% aqueous TCA solution was added, mixed, and then centrifuged in a centrifuge, and the supernatant was discarded. This washing operation was performed twice. After the washing, precipitates were dissolved in a 1 N aqueous sodium hydroxide (NaOH) solution, and the energy quantity (radioactivity) of the reaction product was measured with a liquid scintillation counter.
The calculation of the inhibitory activity of the test compound against CDK7 was performed as a test compound concentration inhibiting 50% of the amount of ^33P bound to MBP (IC50 value) by using EXSUS (version 8.0.0 or version 8.0.1, manufactured by CAC Exicare Corp.).
(§2) The calculation of a Ki value was performed according to the following calculation expression. S means the concentration of ATP contained in the reaction solution, and Km means a Michaelis-Menten constant. Ki=IC50/(1+S/Km)

[2] = target: T2, PAK4 (Homo sapiens, UniProt O96013); assay: PAK4 enzyme inhibition test; assay type: biochemical; conditions: Ki=IC50/(1+S/Km); 33P bound to MBP, [γ-33P]ATP, 30° C. for 20 minutes; read-out: Ki value of PAK4 inhibitory activity
T2 construct: purchased Invitrogen Corp. PV4212
Description: PAK4 Enzyme Inhibition Test
The preparation of a buffer solution was performed by mixing a trishydroxyaminomethane buffer solution (Tris buffer solution) (pH 7.5), DTT, Triton X-100, MgCl2, ethylene glycol bis(β-aminoethyl ether)-N,N,N′,N′-tetraacetic acid (EGTA), (3-glycerol phosphate, and sodium orthovanadate(V). A 40 μM [γ-^33P]ATP solution was used by diluting a 10 mM ATP solution and a commercially available [γ-^33P]ATP solution (manufactured by PerkinElmer, Inc., Code No. NEG-302H) with the buffer solution. A PAK4 solution was used by diluting commercially available PAK4 (manufactured by Invitrogen Corp., Catalog No. PV4212) with the buffer solution. A substrate solution was used by diluting MBP with the buffer solution. As for the preparation of a reaction solution, the buffer solution, the 40 μM [γ-^33P]ATP solution, the PAK4 solution, and the substrate solution were mixed at 4° C. to obtain a reaction solution.
as §1, with “PAK4 enzyme” for “CDK7 enzyme”, “10% DMSO/90%” for “10% dimethyl sulfoxide (DMSO)/90%”, “solution in” for “solution to”, “aqueous TCA” for “aqueous trichloroacetic acid (TCA)”, “aqueous NaOH” for “aqueous sodium hydroxide (NaOH)”, “the radioactivity” for “the energy quantity (radioactivity) of the reaction product”
The calculation of the inhibitory activity of the test compound against PAK4 was performed as a test compound concentration inhibiting 50% of the amount of ^33P bound to MBP (IC50 value) by using EXSUS (version 8.0.0 or version 8.0.1, manufactured by CAC Exicare Corp.).
as §2

[3] = system: human large intestine cancer cell line (HCT-116); assay: Human large intestine cancer (HCT-116) cell growth inhibition test; assay type: cell-based; conditions: 72 h, HCT-116, culture for 3 days, sulforhodamine B absorbance
Description: Human Large Intestine Cancer (HCT-116) Cell Growth Inhibition Test
The measurement of a human large intestine cancer cell growth inhibitory effect was carried out by modifying the method of Simak et al. (Cancer Research, 69, 6208 (2009)).
A human large intestine cancer cell line (HCT-116) (manufactured by DS Pharma Biomedical Co., Ltd., Cat. No. EC91091005) was cultured in McCoy's 5a (manufactured by GIBCO/Thermo Fisher Scientific, Inc., REF. 16600-082) medium containing 10% FBS (manufactured by GIBCO/Thermo Fisher Scientific, Inc., REF. 10082-147) and 1% penicillin/streptomycin/amphotericin B (manufactured by GIBCO/Thermo Fisher Scientific, Inc., REF. 15240-096) and inoculated at 1.0×10^3 cells/well in a 96-well plate (manufactured by Corning Inc., REF. 353072). After overnight culture in a carbon dioxide incubator, it was replaced with a fresh McCoy's 5a medium containing 10% FBS on the next day, and a test compound dissolved in DMSO (manufactured by Wako Pure Chemical Industries, Ltd., Code No. 043-07216) (final DMSO concentration: 0.1%) was added and left standing in a carbon dioxide incubator. After culturing for 3 days, the absorbance of each well was measured by using In Vitro Toxicology Assay Kit Sulforhodamine B based (manufactured by Sigma-Aldrich Co. LLC., Pcode 1001910706).
The rate of inhibition of cell growth at each concentration was calculated from the test compound concentration and the absorbance of sulforhodamine B, and the concentration of the test compound necessary for inhibiting 50% of cell growth (IC50 value) was calculated by using EXSUS (version 8.0.0 or version 8.0.1, manufactured by CAC Exicare Corp.).

[4] = target: T3, CDK2 (Homo sapiens, UniProt P24941); assay: CDK2 enzyme inhibition test; assay type: biochemical; conditions: Ki=IC50/(1+S/Km); 33P bound to MBP, [γ-33P]ATP, 30° C. for 20 minutes; read-out: Ki value of CDK2 inhibitory activity
T3 construct: purchased Invitrogen Corp. PV3267
Description: CDK2 Enzyme Inhibition Test
The preparation of a buffer solution was performed by mixing a HEPES buffer solution (pH 7.4), DTT, Triton X-100, and MgCl2. A 500 μM [γ-^33P]ATP solution was used by diluting a 10 mM ATP solution and a commercially available [γ-^33P]ATP solution (manufactured by PerkinElmer, Inc., Code No. NEG-302H) with the buffer solution. A CDK2 solution was used by diluting commercially available CDK2 (manufactured by Invitrogen Corp., Catalog No. PV3267) with the buffer solution. A substrate solution was used by diluting MBP with the buffer solution. As for the preparation of a reaction solution, the buffer solution, the 500 μM [γ-^33P]ATP solution, the CDK2 solution, and the substrate solution were mixed at 4° C. to obtain a reaction solution.
CDK2 enzyme reaction was performed by adding 5 μL of a test compound solution prepared with 10% DMSO/90% injectable distilled water, and 45 μL of the reaction solution in a 1.5 mL microtube at 4° C. and reacting in the microtube at 30° C. for 20 minutes in a water bath incubator. After the reaction, a 10% aqueous TCA solution was added to each microtube while cooled to 4° C., and mixed to terminate the reaction. The resultant was left standing at 4° C. for 10 minutes and then centrifuged in a centrifuge, and the supernatant was discarded. Next, a 2% aqueous TCA solution was added, mixed thereto, and then centrifuged in a centrifuge, and the supernatant was discarded. This washing operation was performed twice. After the washing, precipitates were dissolved in a 1 N aqueous NaOH solution, and the radioactivity was measured with a liquid scintillation counter.
The calculation of the inhibitory activity of the test compound against CDK2 was performed as a test compound concentration inhibiting 50% of the amount of ^33P bound to MBP (IC50 value) by using EXSUS (version 8.0.0 or version 8.0.1, manufactured by CAC Exicare Corp.).
as §2

T1 sequence (P50613 whole entry): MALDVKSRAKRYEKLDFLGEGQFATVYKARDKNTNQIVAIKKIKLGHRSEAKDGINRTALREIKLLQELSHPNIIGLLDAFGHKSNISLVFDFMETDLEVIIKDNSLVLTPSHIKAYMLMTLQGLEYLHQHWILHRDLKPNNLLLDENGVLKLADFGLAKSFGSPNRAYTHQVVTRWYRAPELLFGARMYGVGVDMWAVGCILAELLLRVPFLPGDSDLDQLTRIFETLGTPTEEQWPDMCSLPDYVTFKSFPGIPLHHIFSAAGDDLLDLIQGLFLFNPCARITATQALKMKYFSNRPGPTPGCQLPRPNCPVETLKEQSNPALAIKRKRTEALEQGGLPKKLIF
T1 sequence (P51946 whole entry partner): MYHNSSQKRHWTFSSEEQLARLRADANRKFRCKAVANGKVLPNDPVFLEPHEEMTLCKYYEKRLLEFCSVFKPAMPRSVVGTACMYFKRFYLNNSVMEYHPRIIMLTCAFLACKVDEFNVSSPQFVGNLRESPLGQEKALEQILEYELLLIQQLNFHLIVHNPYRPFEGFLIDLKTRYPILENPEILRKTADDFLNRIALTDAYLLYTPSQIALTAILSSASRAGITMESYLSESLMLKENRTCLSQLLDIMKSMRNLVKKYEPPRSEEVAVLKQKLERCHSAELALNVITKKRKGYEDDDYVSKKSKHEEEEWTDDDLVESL
T1 sequence (P51948 whole entry partner): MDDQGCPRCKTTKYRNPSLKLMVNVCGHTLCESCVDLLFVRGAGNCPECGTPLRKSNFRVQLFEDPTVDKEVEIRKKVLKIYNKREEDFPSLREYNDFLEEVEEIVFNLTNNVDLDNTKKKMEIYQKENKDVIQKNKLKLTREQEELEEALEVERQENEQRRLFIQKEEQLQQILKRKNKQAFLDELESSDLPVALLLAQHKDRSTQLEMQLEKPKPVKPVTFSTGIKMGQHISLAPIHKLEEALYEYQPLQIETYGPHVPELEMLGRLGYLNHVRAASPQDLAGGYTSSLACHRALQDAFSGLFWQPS
T2 sequence (O96013 whole entry): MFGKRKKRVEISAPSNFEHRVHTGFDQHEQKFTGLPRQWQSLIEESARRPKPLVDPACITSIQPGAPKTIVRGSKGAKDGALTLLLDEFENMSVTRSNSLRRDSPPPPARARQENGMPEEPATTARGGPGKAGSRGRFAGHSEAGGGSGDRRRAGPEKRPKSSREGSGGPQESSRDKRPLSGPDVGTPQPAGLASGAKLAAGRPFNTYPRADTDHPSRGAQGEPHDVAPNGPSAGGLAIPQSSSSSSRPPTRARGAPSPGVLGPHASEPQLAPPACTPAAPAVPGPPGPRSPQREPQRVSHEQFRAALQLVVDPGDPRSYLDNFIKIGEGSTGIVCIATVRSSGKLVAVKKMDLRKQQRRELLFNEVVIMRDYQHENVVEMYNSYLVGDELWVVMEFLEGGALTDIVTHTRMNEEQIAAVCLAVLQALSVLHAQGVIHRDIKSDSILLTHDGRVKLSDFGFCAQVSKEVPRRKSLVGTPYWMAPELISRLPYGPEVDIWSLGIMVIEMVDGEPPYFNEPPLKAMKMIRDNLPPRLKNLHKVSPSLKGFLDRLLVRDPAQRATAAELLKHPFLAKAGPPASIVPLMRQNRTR

Structure (SMILES): CC[Si](C)(C)C(C)(C)C(=O)Nc1n[nH]c2c1CN(C(=O)N[C@H](CO)c1ccccc1)C2(C)C [II-116, (S)-3-[2-(Ethyldimethylsilyl)-2-methylpropanamido]-N-(2-hydroxy-1-phenylethyl)-6,6-dimethyl-4,6-dihydropyrrolo[3,4-c]pyrazole-5(1H)-carboxamide]
Ki [1]: ≤ 50 nM | Ki [2]: ≥ 500 nM | IC50 [3]: ≤ 500 nM | Ki [4]: ≥ 1000 nM

Structure (SMILES): CC(C)(O)C[C@@H](NC(=O)N1Cc2c(NC(=O)C3([Si](C)(C)C)CC3)n[nH]c2C1(C)C)c1ccccc1 [III-298, (R)—N-(3-Hydroxy-3-methyl-1-phenylbutyl)-6,6-dimethyl-3-[1-(trimethylsilyl)cyclopropanecarboxamido]-4,6-dihydropyrrolo[3,4-c]pyrazole-5(1H)-carboxamide]
Ki [1]: ≤ 50 nM | Ki [2]: ≥ 500 nM | IC50 [3]: ≤ 500 nM | Ki [4]: ≥ 1000 nM

Structure (SMILES): CC(C)(O)C[C@@H](NC(=O)N1Cc2c(NC(=O)C3([Si](C)(C)C)CCC3)n[nH]c2C1(C)C)c1ccccc1F [IV-883, (R)—N-[1-(2-Fluorophenyl)-3-hydroxy-3-methylbutyl]-6,6-dimethyl-3-[1-(trimethylsilyl)cyclobutanecarboxamido]-4,6-dihydropyrrolo[3,4-c]pyrazole-5(1H)-carboxamide]
Ki [2]: ≥ 500 nM | IC50 [3]: ≤ 500 nM | Ki [4]: ≥ 1000 nM

Structure (SMILES): CC(C)(CO)C(NC(=O)N1Cc2c(NC(=O)C3([Si](C)(C)C)CCC3)n[nH]c2C1(C)C)c1ccccc1F (stereo not shown) [IV-890, N-[1-(2-Fluorophenyl)-3-hydroxy-2,2-dimethylpropyl]-6,6-dimethyl-3-[1-(trimethylsilyl)cyclobutanecarboxamido]-4,6-dihydropyrrolo[3,4-c]pyrazole-5(1H)-carboxamide]
IC50 [3]: ≤ 500 nM | Ki [4]: ≥ 1000 nM

Structure (SMILES): COCC(Oc1ccccc1)C(=O)N1Cc2c(NC(=O)C3([Si](C)(C)C)CCC3)n[nH]c2C1(C)C (stereo not shown) [IV-1348, N-[5-(3-Methoxy-2-phenoxypropanoyl)-6,6-dimethyl-1,4,5,6-tetrahydropyrrolo[3,4-c]pyrazol-3-yl]-1-(trimethylsilyl)cyclobutanecarboxamide]
Ki [1]: ≤ 50 nM | IC50 [3]: ≤ 500 nM

Structure (SMILES): COC(C(=O)N1Cc2c(NC(=O)C3([Si](C)(C)C)CCC3)n[nH]c2C1(C)C)c1ccc(F)cc1 (stereo not shown) [IV-1427, N-{5-[2-(4-Fluorophenyl)-2-methoxyacetyl]-6,6-dimethyl-1,4,5,6-tetrahydropyrrolo[3,4-c]pyrazol-3-yl}-1-(trimethylsilyl)cyclobutanecarboxamide]
Ki [1]: ≤ 50 nM | IC50 [3]: ≤ 500 nM

Next, values leading:

Ki [1]: ≤ 50 nM | Ki [2]: ≥ 500 nM | IC50 [3]: ≤ 500 nM | Ki [4]: ≥ 1000 nM
Structure (SMILES): CC(C)(CO)C(NC(=O)N1Cc2c(NC(=O)C3([Si](C)(C)C)CC3)n[nH]c2C1(C)C)c1ccccc1 (stereo not shown) [III-353, N-(3-Hydroxy-2,2-dimethyl-1-phenylpropyl)-6,6-dimethyl-3-[1-(trimethylsilyl)cyclopropanecarboxamido]-4,6-dihydropyrrolo[3,4-c]pyrazole-5(1H)-carboxamide]

Ki [2]: ≥ 500 nM | Ki [4]: ≥ 1000 nM
Structure (SMILES): CC1(C)c2[nH]nc(NC(=O)C3([Si](C)(C)C)CCC3)c2CN1C(=O)N[C@@H](CO)c1ccccc1 [IV-115, (R)—N-(2-Hydroxy-1-phenylethyl)-6,6-dimethyl-3-[1-(trimethylsilyl)cyclobutanecarboxamido]-4,6-dihydropyrrolo[3,4-c]pyrazole-5(1H)-carboxamide]

Ki [1]: ≤ 50 nM | Ki [2]: ≥ 500 nM | Ki [4]: ≥ 1000 nM
Structure (SMILES): CC1(C)c2[nH]nc(NC(=O)C3([Si](C)(C)C)CCC3)c2CN1C(=O)N[C@H](C(=O)O)c1ccccc1 [IV-403 (sodium salt), Sodium (S)-2-{6,6-dimethyl-3-[1-(trimethylsilyl)cyclobutanecarboxamido]-1,4,5,6-tetrahydropyrrolo[3,4-c]pyrazole-5-carboxamido}-2-phenylacetate]

Ki [1]: ≤ 50 nM | IC50 [3]: ≤ 500 nM
Structure (SMILES): CC1(C)c2[nH]nc(NC(=O)C3([Si](C)(C)C)CCC3)c2CN1C(=O)C(CO)Oc1ccccc1 (stereo not shown) [IV-1330, N-[5-(3-Hydroxy-2-phenoxypropanoyl)-6,6-dimethyl-1,4,5,6-tetrahydropyrrolo[3,4-c]pyrazol-3-yl]-1-(trimethylsilyl)cyclobutanecarboxamide]
